How the values were obtained:
Histamine H3 receptor [1] = biological target: Histamine H3 receptor (Rattus norvegicus, UniProt Q9QYN8); assay: Displacement of [3H]NAMH from rat cloned […] expressed in CHO cells; assay type: cell-based
[2] = Oral bioavailability in Sprague-Dawley rat at 5 mg/kg; assay type: ADME, organism-based; conditions: in vivo
Histamine H3 receptor [3] = biological target: Histamine H3 receptor (Homo sapiens, UniProt Q9Y5N1); assay: Displacement of [3H]NAMH from human cloned […] expressed in CHO cells; assay type: cell-based
Sequence of Histamine H3 receptor (Homo sapiens, UniProt Q9Y5N1) (Q9Y5N1 whole entry): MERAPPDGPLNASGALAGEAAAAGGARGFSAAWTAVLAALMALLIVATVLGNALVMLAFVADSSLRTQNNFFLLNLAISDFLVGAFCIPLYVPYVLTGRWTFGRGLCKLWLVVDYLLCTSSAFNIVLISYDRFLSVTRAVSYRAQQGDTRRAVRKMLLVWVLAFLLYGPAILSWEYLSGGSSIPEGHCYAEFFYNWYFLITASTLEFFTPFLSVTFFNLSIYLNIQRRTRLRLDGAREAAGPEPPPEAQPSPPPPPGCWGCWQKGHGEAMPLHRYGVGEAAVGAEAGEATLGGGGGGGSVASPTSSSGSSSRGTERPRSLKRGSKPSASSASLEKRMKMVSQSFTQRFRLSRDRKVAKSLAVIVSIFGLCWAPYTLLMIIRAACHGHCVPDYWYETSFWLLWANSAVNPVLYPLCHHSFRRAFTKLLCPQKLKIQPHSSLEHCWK

[4] = Half life in Sprague-Dawley rat at 1 mg/kg, iv and 5 mg/kg, po; assay type: ADME, organism-based; conditions: in vivo
[5] = Ratio of drug level in brain to plasma in Sprague-Dawley rat at 10 mg/kg, ip after 1 hr; assay type: ADME, organism-based; set-up: dose 10 mg/kg, route intraperitoneal; conditions: brain and plasma, read-out: BPR
[6] = Clearance in Sprague-Dawley rat at 1 mg/kg, iv and 5 mg/kg, po; assay type: ADME, organism-based; conditions: in vivo

Sequence of Histamine H3 receptor (Rattus norvegicus, UniProt Q9QYN8) (Q9QYN8 whole entry): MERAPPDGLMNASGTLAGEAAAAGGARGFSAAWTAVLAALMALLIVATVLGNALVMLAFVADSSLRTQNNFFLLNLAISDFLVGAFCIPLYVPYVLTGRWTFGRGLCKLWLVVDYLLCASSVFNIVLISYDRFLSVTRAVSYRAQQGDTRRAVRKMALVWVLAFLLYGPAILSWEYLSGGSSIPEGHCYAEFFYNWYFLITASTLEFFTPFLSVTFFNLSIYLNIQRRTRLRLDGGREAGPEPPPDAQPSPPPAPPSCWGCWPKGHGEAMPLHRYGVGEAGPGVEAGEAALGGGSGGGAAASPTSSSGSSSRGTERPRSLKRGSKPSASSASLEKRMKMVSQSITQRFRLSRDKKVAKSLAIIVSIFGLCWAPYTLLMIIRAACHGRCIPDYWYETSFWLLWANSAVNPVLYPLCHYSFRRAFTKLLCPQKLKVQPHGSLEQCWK

| Structure (SMILES) | Ki (Histamine H3 receptor [1]) | bioavailability [2] | Ki (Histamine H3 receptor [3]) | half-life [4] | Kp at 1 h [5] | clearance [6] |
| --- | --- | --- | --- | --- | --- | --- |
| Cc1cccnc1-n1ncc(-c2ccc(OCCCN3CCC[C@H]3C)cc2)cc1=O | 8.6 nM | 30% | 2.5 nM | 1.8 h | 0.2 | 34 mL/min/kg |
| O=c1cc(-c2ccc(OCCCN3CCCCC3)cc2)cnn1-c1ccccn1 | 16 nM | 26% | 7.8 nM | 1.6 h | 1.6 | 11 mL/min/kg |
| Cn1ncc(-c2ccc(OCCCN3CCCCC3)cc2)cc1=O | 30 nM | 40% | 13 nM | 0.6 h | 5.3 | 75 mL/min/kg |
| C[C@@H]1CCCN1CCCOc1ccc(-c2cnn(C)c(=O)c2)cc1 | 5.5 nM | 19% | 1.9 nM | 1 h | 3.3 | 32 mL/min/kg |
| Cc1n[nH]c(=O)cc1-c1ccc(OCCCN2CCC[C@H]2C)cc1 | 5.1 nM | 20% | 1.6 nM | 1.4 h | 1.6 | 25 mL/min/kg |
| Cc1nn(-c2ccccn2)c(=O)cc1-c1ccc(OCCCN2CCC[C@H]2C)cc1 | 5 nM | 15% | 1.7 nM | 1.3 h | 0.7 | 13 mL/min/kg |
| C[C@@H]1CCCN1CCCOc1ccc(-c2cn[nH]c(=O)c2)cc1 | – | – | – | – | 1.8 | – |
| Cc1nn(C)c(=O)cc1-c1ccc(OCCCN2CCCCC2)cc1 | 18 nM | 69% | 8.9 nM | 1.6 h | 2.4 | 48 mL/min/kg |
| Cc1cccnc1-n1nc(C)c(-c2ccc(OCCCN3CCC[C@H]3C)cc2)cc1=O | 17 nM | 20% | 3 nM | 1.4 h | 0.5 | 7 mL/min/kg |
| O=c1cc(-c2ccc(OCCCN3CCCCCC3)cc2)cnn1-c1ccccn1 | 12 nM | 28% | 5.3 nM | 1.8 h | 1.8 | 25 mL/min/kg |

Source: ChEMBL document CHEMBL1955733, “Optimization of 5-pyridazin-3-one phenoxypropylamines as potent, selective histamine H₃ receptor antagonists with potent cognition enhancing activity” (J Med Chem, 2012)
